Results published in patent US9895352B2, “Indolinone compounds and uses thereof” (Oncternal Therapeutics, Inc., priority 2014, dated 2018).
Values joined by “and” are separate entries in the source; they are usually repeats but may differ in a detail not shown here. Equal entries are not always repeated. Where two headings read alike, the source gives them in different places.

Key:
[1] = test system: SKES cells (Ewing Sarcoma cell line); assay: CCK-8 tetrazolium tumor cell growth inhibition, SKES; assay type: cell-based; details: Homo sapiens
Method: A modified tetrazolium salt assay using the CCK-8 kit (Sigma-Aldrich; St Louis, Mo.) was used to measure the inhibition of human tumor cell growth. Tumor cells (5000-7500 per well) were added to 96 well plates and allowed to attach for 4-5 hours. Compounds were serially diluted and added in triplicate at a concentration of 0.02 to 5 μM. DMSO was included as a vehicle control. Cells were incubated in the presence of compound for 3 days. After incubation CCK-8 reagent was added to each well and incubated for 2-4 hours. Viable cells were quantitated spectrophotometrically at a wavelength of 450 nm. Percent viability of each sample was calculated from the A450 values as follows: % viability=(A450 nm sample/A450 nm DMSO-treated cells×100). […] IC50 activities of particular compounds were determined using SKES cells (Ewing Sarcoma cell line).

[2] = mouse liver microsome, no cofactor, 60 min
[3] = human liver microsome, no cofactor, 60 min
[4] = rat liver microsome, no cofactor, 60 min
[5] = dog liver microsome, no cofactor, 60 min
[6] = Pharmacokinetics after IV and oral administration; assay type: in vivo; details: BALB/c mice or Sprague Dawley rats
Method: Certain pharmacokinetics parameters were determined for certain compounds in vivo for intravenous and oral administration. Briefly, compounds were formulated and administered using IV bolus, continuous IV infusion or oral administration. Blood was collected at multiple time points over 24 hours and processed into plasma. Plasma was analyses for parent using LC/MS/MS. Certain parameters for certain compounds were obtained in duplicate.

[7] = 72 h, SKES cells, 3 days with compound, CCK-8 (TABLE 3)
[8] = 20 mg/kg po, labrasol/tetraglycol 9:1
[9] = 20 mg/kg po, labrasol:tetraglycol:water 72:8:20
[10] = plasma, iv, 5 mg/kg, 5 mg/kg IV, captisol
[11] = plasma, po, 20 mg/kg, 20 mg/kg po, labrasol/tetraglycol 9:1
[12] = plasma, po, 20 mg/kg, 20 mg/kg po, labrasol:tetraglycol:water 72:8:20

Question: For `CS(=O)(=O)c1ccc(C(=O)CC2(O)C(=O)Nc3c(Cl)ccc(Cl)c32)cc1` (racemic) [Cmpd 4, 4,7-Dichloro-3-hydroxy-3-(2-(4-(methylsulfonyl)phenyl)-2-oxoethyl)indolin-2-one], which IC50 [1, 7] is on record?
Answer: > 5 µM

Question: And the IC50 ([1]; SKES, ES, EWS-FLI1 Type 2)?
Answer: > 5 µM

Question: For `O=C(CC1(O)C(=O)Nc2c(Cl)ccc(Cl)c21)c1ccc(N2CC2)cc1` (racemic) [Cmpd 8, 3-(2-(4-(Aziridin-1-yl)phenyl)-2-oxoethyl)-4,7-dichloro-3-hydroxyindolin-2-one], which IC50 [1, 7] is on record?
Answer: < 5 µM

Question: What about the IC50 ([1]; SKES, ES, EWS-FLI1 Type 2) of the same compound?
Answer: < 5 µM

Question: For `CC(C)c1ccc(C(=O)CC2(O)C(=O)Nc3c(Cl)ccc(Cl)c32)cc1` (racemic) [Cmpd 9, 4,7-Dichloro-3-hydroxy-3-(2-(4-isopropylphenyl)-2-oxoethyl)indolin-2-one], which IC50 [1, 7] is on record?
Answer: > 5 µM

Question: And the IC50 ([1]; SKES, ES, EWS-FLI1 Type 2)?
Answer: > 5 µM

Question: What does the source list for `O=C(CC1(O)C(=O)Nc2c(Cl)ccc(Cl)c21)c1ccc(-n2cccn2)cc1` (racemic) [Cmpd 16, 3-(2-(4-(1H-Pyrazol-1-yl)phenyl)-2-oxoethyl)-4,7-dichloro-3-hydroxyindolin-2-one]?
Answer: IC50 [1, 7]: > 5 µM; IC50 ([1]; SKES, ES, EWS-FLI1 Type 2): > 5 µM

Question: For `NS(=O)(=O)c1ccc(C(=O)CC2(O)C(=O)Nc3c(Cl)ccc(Cl)c32)cc1` (racemic) [Cmpd 20, 4-(2-(4,7-Dichloro-3-hydroxy-2-oxoindolin-3-yl)acetyl)benzenesulfonamide], which IC50 [1, 7] is on record?
Answer: > 5 µM

Question: What about the IC50 ([1]; SKES, ES, EWS-FLI1 Type 2) of the same compound?
Answer: > 5 µM

Question: With `O=C(CC1(O)C(=O)Nc2c(Cl)ccc(Cl)c21)c1ccc(N2CCCC2)c(F)c1` (racemic) [Cmpd 21, 4,7-Dichloro-3-(2-(3-fluoro-4-(pyrrolidin-1-yl)phenyl)-2-oxoethyl)-3-hydroxyindolin-2-one] as the compound, how does the IC50 [1, 7] read?
Answer: > 5 µM

Question: And the IC50 ([1]; SKES, ES, EWS-FLI1 Type 2)?
Answer: > 5 µM

Question: Which results are given for `O=C(CC1(O)C(=O)Nc2c(Cl)ccc(Cl)c21)c1ccc(N2CCC2)cc1` (racemic) [Cmpd 22, 3-(2-(4-(Azetidin-1-yl)phenyl)-2-oxoethyl)-4,7-dichloro-3-hydroxyindolin-2-one]?
Answer: IC50 [1, 7]: < 5 µM; IC50 ([1]; SKES, ES, EWS-FLI1 Type 2): < 5 µM

Question: With `COC1CCC(C(=O)CC2(O)C(=O)Nc3c(Cl)ccc(Cl)c32)CC1` (racemic) [Cmpd 23, 4,7-Dichloro-3-hydroxy-3-(2-(4-methoxycyclohexyl)-2-oxoethyl)indolin-2-one] as the compound, how does the IC50 [1, 7] read?
Answer: > 5 µM

Question: And the IC50 ([1]; SKES, ES, EWS-FLI1 Type 2)?
Answer: > 5 µM

Question: Which results are given for `COC12CCC(C(=O)CC3(O)C(=O)Nc4c(Cl)ccc(Cl)c43)(CC1)CC2` (racemic) [Cmpd 24, 4,7-Dichloro-3-hydroxy-3-(2-(4-methoxybicyclo[2.2.2]octan-1-yl)-2-oxoethyl)indolin-2-one]?
Answer: IC50 [1, 7]: > 5 µM; IC50 ([1]; SKES, ES, EWS-FLI1 Type 2): > 5 µM

Question: Which IC50 [1, 7] does the source give for `CN(C)C12CCC(C(=O)CC3(O)C(=O)Nc4c(Cl)ccc(Cl)c43)(CC1)CC2` (racemic) [Cmpd 25, 4,7-Dichloro-3-(2-(4-(dimethylamino)bicyclo[2.2.2]octan-1-yl)-2-oxoethyl)-3-hydroxyindolin-2-one] here?
Answer: > 5 µM

Question: And the IC50 ([1]; SKES, ES, EWS-FLI1 Type 2)?
Answer: > 5 µM

Question: Which results are given for `O=C(CC1(O)C(=O)Nc2c(Cl)ccc(Cl)c21)c1ccc(C2CC2)c(F)c1` (racemic) [Cmpd 26, 4,7-Dichloro-3-(2-(4-cyclopropyl-3-fluorophenyl)-2-oxoethyl)-3-hydroxyindolin-2-one]?
Answer: IC50 [1, 7]: < 5 µM; IC50 ([1]; SKES, ES, EWS-FLI1 Type 2): < 5 µM

Question: With `O=C(CC1(O)C(=O)Nc2c(Cl)ccc(Cl)c21)c1ccc(C2CC2)cc1F` (racemic) [Cmpd 27, 4,7-Dichloro-3-(2-(4-cyclopropyl-2-fluorophenyl)-2-oxoethyl)-3-hydroxyindolin-2-one] as the compound, how does the IC50 [1, 7] read?
Answer: < 5 µM

Question: And the IC50 ([1]; SKES, ES, EWS-FLI1 Type 2)?
Answer: < 5 µM

Question: For `O=C(CC1(O)C(=O)Nc2c(Cl)ccc(Cl)c21)c1ccc(N2CCOCC2)cc1` (racemic) [Cmpd 29, 4,7-dichloro-3-hydroxy-3-(2-(4-moprholinophenyl)-2-oxoethyl)indolin-2-one], which IC50 [1, 7] is on record?
Answer: > 5 µM

Question: What about the IC50 ([1]; SKES, ES, EWS-FLI1 Type 2) of the same compound?
Answer: > 5 µM

Question: Which IC50 [1, 7] does the source give for `O=C(CC1(O)C(=O)Nc2c(Cl)ccc(Cl)c21)c1ccncc1` (racemic) [Cmpd 30, 4,7-dichloro-3-hydroxy-3-(2-oxo-2-(pyridin-4-yl)ethyl)indolin-2-one] here?
Answer: > 5 µM

Question: And the IC50 ([1]; SKES, ES, EWS-FLI1 Type 2)?
Answer: > 5 µM

Question: Which IC50 [1, 7] does the source give for `O=C(CC1(O)C(=O)Nc2c(Cl)ccc(Cl)c21)c1cccnc1` (racemic) [Cmpd 31, 4,7-dichloro-3-hydroxy-3-(2-oxo-2-(pyridin-3-yl)ethyl)indolin-2-one] here?
Answer: > 5 µM

Question: What about the IC50 ([1]; SKES, ES, EWS-FLI1 Type 2) of the same compound?
Answer: > 5 µM

Question: Which IC50 [1, 7] does the source give for `O=C(CC1(O)C(=O)Nc2c(Cl)ccc(Cl)c21)c1ccccn1` (racemic) [Cmpd 32, 4,7-dichloro-3-hydroxy-3-(2-oxo-2-(pyridin-2-yl)ethyl)indolin-2-one] here?
Answer: > 5 µM

Question: And the IC50 ([1]; SKES, ES, EWS-FLI1 Type 2)?
Answer: > 5 µM

Question: Which IC50 [1, 7] does the source give for `NC(=O)c1ccc(C(=O)CC2(O)C(=O)Nc3c(Cl)ccc(Cl)c32)cc1` (racemic) [Cmpd 33, 4-(2-(4,7-dichloro-3-hydroxy-2-oxoindolin-3-yl)acetyl)benzamide] here?
Answer: > 5 µM

Question: And the IC50 ([1]; SKES, ES, EWS-FLI1 Type 2)?
Answer: > 5 µM

Question: For `O=C(CC1(O)C(=O)Nc2c(Cl)ccc(Cl)c21)c1ccc(O)cc1` (racemic) [Cmpd 34, 4,7-dichloro-3-hydroxy-3-(2-(4-hydroxyphenyl)-2-oxoethyl)indolin-2-one], which IC50 [1, 7] is on record?
Answer: > 5 µM

Question: What about the IC50 ([1]; SKES, ES, EWS-FLI1 Type 2) of the same compound?
Answer: > 5 µM

Question: With `O=C(CC1(O)C(=O)Nc2c(Cl)ccc(Cl)c21)c1ccc(F)c(F)c1` (racemic) [Cmpd 35, 4,7-dichloro-3-(2-(3,4-difluorophenyl)-2-oxoethyl)-3-hydroxyindolin-2-one] as the compound, how does the IC50 [1, 7] read?
Answer: > 5 µM

Question: And the IC50 ([1]; SKES, ES, EWS-FLI1 Type 2)?
Answer: > 5 µM

Question: Which “Remaining (NCF = 60 min)” value [2] does the source give for `COc1ccc(C(=O)CC2(O)C(=O)Nc3c(Cl)ccc(Cl)c32)cc1` (single isomer, unassigned) [Cmpd 3, 4,7-Dichloro-3-hydroxy-3-[2-(4-methoxyphenyl-2-oxoethyl)]-1,3-dihydroindol-2-one] here?
Answer: 97.5%

Question: And the “Remaining (NCF = 60 min)” value [3]?
Answer: 112.6%

Question: What about the “Remaining (NCF = 60 min)” value [4] of the same compound?
Answer: 92.6%

Question: And the “Remaining (NCF = 60 min)” value [5]?
Answer: 100.1%

Question: For `CNc1ccc(C(=O)CC2(O)C(=O)Nc3c(Cl)ccc(Cl)c32)cc1` (single isomer, unassigned) [Cmpd 5, 4,7-dichloro-3-hydroxy-3-[2-[4-(methylamino)phenyl]-2-oxoethyl]-1H-indol-2-one], which AUC ([6]; 5 mg/kg IV, captisol) is on record?
Answer: 2324 h * (ng/mL) and 3207 h * (ng/mL)

Question: And the AUC [6, 8]?
Answer: 5192 h * (ng/mL) and 4939 h * (ng/mL)

Question: And the Tmax [6, 8]?
Answer: 0.5 h

Question: What about the “% F” value [6, 9] of the same compound?
Answer: 39%

Question: What about the AUC [6, 9] of the same compound?
Answer: 4354 h * (ng/mL) and 4081 h * (ng/mL)

Question: What about the Tmax [6, 9] of the same compound?
Answer: 0.5 h

Question: What about the Cmax [6, 10] of the same compound?
Answer: 13000 ng/mL

Question: What about the half-life [6, 10] of the same compound?
Answer: 1.7 h

Question: And the Tmax ([6]; plasma, iv, 5 mg/kg, 5 mg/kg IV, captisol, read-out: Tmax)?
Answer: 0.033 h

Question: What about the Cmax [6, 11] of the same compound?
Answer: 2180 ng/mL

Question: What about the bioavailability [6, 11] of the same compound?
Answer: 56%

Question: And the half-life [6, 11]?
Answer: 3.1 h

Question: What about the Tmax ([6]; plasma, po, 20 mg/kg, 20 mg/kg po, labrasol/tetraglycol 9:1, read-out: Tmax) of the same compound?
Answer: 1 h

Question: And the Cmax [6, 12]?
Answer: 1570 ng/mL

Question: What about the bioavailability [6, 12] of the same compound?
Answer: 47%

Question: And the half-life [6, 12]?
Answer: 2.8 h

Question: And the Tmax ([6]; plasma, po, 20 mg/kg, 20 mg/kg po, labrasol:tetraglycol:water 72:8:20, read-out: Tmax)?
Answer: 1 h

Question: What does the source list for `O=C(CC1(O)C(=O)Nc2c(Cl)ccc(Cl)c21)c1ccc(C2CC2)cc1` (single isomer, unassigned) [Cmpd 13, 4,7-Dichloro-3-(2-(4-cyclopropylphenyl)-2-oxoethyl)-3-hydroxyindolin-2-one]?
Answer: Remaining (NCF = 60 min) [2]: 85.6%; Remaining (NCF = 60 min) [3]: 105.1%; Remaining (NCF = 60 min) [4]: 97.0%; IC50 [1, 7]: > 5 µM; IC50 ([1]; SKES, ES, EWS-FLI1 Type 2): > 5 µM; Remaining (NCF = 60 min) [5]: 98.4%

Question: With `O=C(CC1(O)C(=O)Nc2c(Cl)ccc(Cl)c21)c1ccc(C2CC2)c(F)c1` (single isomer, unassigned) [Cmpd 36, 4,7-Dichloro-3-(2-(4-cyclopropyl-3-fluorophenyl)-2-oxoethyl)-3-hydroxyindolin-2-one] as the compound, how does the “Remaining (NCF = 60 min)” value [3] read?
Answer: 104.0%

Question: Which “Remaining (NCF = 60 min)” value [3] does the source give for `O=C(CC1(O)C(=O)Nc2c(Cl)ccc(Cl)c21)c1ccc(C2CC2)cc1F` (single isomer, unassigned) [Cmpd 38, 4,7-Dichloro-3-(2-(4-cyclopropyl-2-fluorophenyl)-2-oxoethyl)-3-hydroxyindolin-2-one] here?
Answer: 99.5%

Question: Which results are given for `O=C(CC1(O)C(=O)Nc2c(Cl)ccc(Cl)c21)c1ccc(N2CCCC2)cc1` (stereo not drawn) [Cmpd 17, 4,7-Dichloro-3-hydroxy-3-(2-oxo-2-(4-(pyrrolidin-1-yl)phenyl)ethyl)indolin-2-one]?
Answer: IC50 [1, 7]: > 5 µM; IC50 ([1]; SKES, ES, EWS-FLI1 Type 2): > 5 µM
